In ChEMBL document CHEMBL1155619, “Kurstakins: a new class of lipopeptides isolated from Bacillus thuringiensis” (2000) one finds Activity data, which are given here for one compound.

The experiment deals with Stachybotrys chartarum. Briefly: Antifungal activity against Stachybotrys charatum assessed as zone of inhibition at 80 ug after 24 hrs. The class given is functional.

Activity calls are given as the source filed them. The calls are words filed in the database; no cut-off is given here. Starred links: 1 amine or outer side, 2 acyl side, 3 side chain; linkers in the order of their positions; H or OH if unused. Positions of bridges follow the written chain, without caps; N, C: chain ends. Non-standard residues stand in square brackets, D forms with d. Residues, ends and D or L forms follow the SMILES beside them. X1 = CC(C)CCCCCCCCC[C@H](CC(=O)[*:1])O[*:2]

On to `CC(C)CCCCCCCCC[C@@H]1CC(=O)N[C@@H](CCC(=O)O)C(=O)N[C@@H](CC(C)C)C(=O)N[C@H](CC(C)C)C(=O)N[C@@H](C(C)C)C(=O)N[C@@H](CC(=O)O)C(=O)N[C@H](CC(C)C)C(=O)N[C@@H](CC(C)C)C(=O)O1` (EL[dL]VD[dL]L; linker N-C via X1), for which the result was inactive.
